Measured values from PubChem BioAssay AID248 (DTP/NCI, 2004).
Where “and” joins values, the source holds several entries; their conditions need not be identical. Identical values can stand only once. Toxic doses and inconclusive results are not listed. Rule as the data show it: active = T/C of 150% or more; inactive = T/C below 125%.

Tested on: L1210 leukemia ip in BDF1 mice, survival T/C
Assay: NCI In Vivo Anticancer Drug Screen. Data for tumor model L1210 Leukemia (intraperitoneal) in B6D2F1 (BDF1) mice
Conditions: endpoint: mean survival time, higher = longer survival
Procedure, shortened: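 Antitumor effect is assessed in tumor-bearing animals. Survival in the compound arm is compared with a vehicle-dosed control arm and expressed as their quotient.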

[1] = dose: 100.0 mg/kg/injection, schedule: Q04DX003 (ip), vehicle: saline with Tween-80
[2] = dose: 200.0 mg/kg/injection, schedule: Q04DX003 (ip), vehicle: saline with Tween-80
[3] = dose: 400.0 mg/kg/injection, schedule: Q04DX003 (ip), vehicle: saline with Tween-80
[4] = dose: 100.0 mg/kg/injection, schedule: Q01DX009 (ip), vehicle: saline with Tween-80
[5] = dose: 200.0 mg/kg/injection, schedule: Q01DX009 (ip), vehicle: saline with Tween-80
[6] = dose: 400.0 mg/kg/injection, schedule: Q01DX009 (ip), vehicle: saline with Tween-80
[7] = dose: 100.0 mg/kg/injection, schedule: Q04DX002 (ip), vehicle: saline with Tween-80
[8] = dose: 100.0 mg/kg/injection, schedule: Q01DX001 (ip), vehicle: carboxymethylcellulose (CMC)
[9] = dose: 200.0 mg/kg/injection, schedule: Q01DX001 (ip), vehicle: carboxymethylcellulose (CMC)
[10] = dose: 400.0 mg/kg/injection, schedule: Q01DX001 (ip), vehicle: carboxymethylcellulose (CMC)
[11] = dose: 100.0 mg/kg/injection, schedule: Q01DX009 (ip), vehicle: Klucel (hydroxypropylcellulose) (HPC)
[12] = dose: 100.0 mg/kg/injection, schedule: Q04DX003 (ip), vehicle: Klucel (hydroxypropylcellulose) (HPC)
[13] = dose: 200.0 mg/kg/injection, schedule: Q04DX003 (ip), vehicle: Klucel (hydroxypropylcellulose) (HPC)
[14] = dose: 100.0 mg/kg/injection, schedule: Q04DX003 (ip), vehicle: saline
[15] = dose: 200.0 mg/kg/injection, schedule: Q04DX003 (ip), vehicle: saline
[16] = dose: 200.0 mg/kg/injection, schedule: Q01DX009 (ip), vehicle: Klucel (hydroxypropylcellulose) (HPC)
[17] = dose: 400.0 mg/kg/injection, schedule: Q01DX009 (ip), vehicle: Klucel (hydroxypropylcellulose) (HPC)
[18] = dose: 400.0 mg/kg/injection, schedule: Q04DX003 (ip), vehicle: Klucel (hydroxypropylcellulose) (HPC)
[19] = dose: 50.0 mg/kg/injection, schedule: Q01DX001 (ip), vehicle: saline

Measured: T/C

O=C(c1ccc(F)cc1)c1ccc([N+](=O)[O-])cc1
inactive: [1] 97 % of control | [2] 97 % of control | [3] 98 % of control

Cc1ccc2c(c1)C(=NCCCN=C1C(=O)Nc3ccc(C)cc31)C(=O)N2
inactive: [4] 96 % of control | [1] 93 % of control | [5] 91 % of control | [2] 102 % of control | [6] 98 % of control | [3] 98 % of control

CC(C)=C(c1ccc(C(C)(C)C)cc1)c1ccc(C(C)(C)C)cc1
inactive: [4] 94 % of control | [5] 95 % of control

CCCCCCC(C)C1CCCCC1 (stereo unspecified)
inactive: dose: 100.0 mg/kg/injection, schedule: Q01DX001 (ip), vehicle: saline with Tween-80 96 % of control | dose: 200.0 mg/kg/injection, schedule: Q01DX001 (ip), vehicle: saline with Tween-80 93 % of control | dose: 400.0 mg/kg/injection, schedule: Q01DX001 (ip), vehicle: saline with Tween-80 93 % of control

[CH3][Pb]([CH3])([CH3])[O]C(=O)c1ccc([N+](=O)[O-])cc1
inactive: dose: 12.5 mg/kg/injection, schedule: Q04DX002 (ip), vehicle: Klucel (hydroxypropylcellulose) (HPC) 97 % of control

CCN(CC)CCCCNc1ccc(NCCCCN(CC)CC)c2c1C(=O)c1ccccc1C2=O
inactive: dose: 25.0 mg/kg/injection, schedule: Q04DX002 (ip), vehicle: alcohol 106 % of control | dose: 50.0 mg/kg/injection, schedule: Q04DX002 (ip), vehicle: alcohol 95 % of control | dose: 100.0 mg/kg/injection, schedule: Q04DX002 (ip), vehicle: alcohol 92 % of control

CCCCOP(=O)(OCCCC)c1ccccc1OC
inactive: dose: 25.0 mg/kg/injection, schedule: Q04DX002 (ip), vehicle: saline with Tween-80 99 % of control | dose: 50.0 mg/kg/injection, schedule: Q04DX002 (ip), vehicle: saline with Tween-80 99 % of control | [7] 96 % of control and 89 % of control

Nc1c(Cl)c(Cl)c2c(c1Cl)C(=O)c1cc(Cl)ccc1-2
inactive: [8] 97 % of control | [9] 108 % of control | [10] 105 % of control

Cc1ccc(SC2CC3CC2C2COCC32)cc1 (stereo unspecified)
inactive: dose: 50.0 mg/kg/injection, schedule: Q01DX009 (ip), vehicle: Klucel (hydroxypropylcellulose) (HPC) 98 % of control | [11] 98 % of control | [12] 90 % of control | [13] 98 % of control

CCc1cc(O)c(Cl)c(C)c1Cl
inactive: dose: 50.0 mg/kg/injection, schedule: Q01DX009 (ip), vehicle: gum acacia 97 % of control | dose: 50.0 mg/kg/injection, schedule: Q04DX003 (ip), vehicle: gum acacia 94 % of control | dose: 100.0 mg/kg/injection, schedule: Q01DX009 (ip), vehicle: gum acacia 92 % of control | dose: 100.0 mg/kg/injection, schedule: Q04DX003 (ip), vehicle: gum acacia 98 % of control | dose: 200.0 mg/kg/injection, schedule: Q04DX003 (ip), vehicle: gum acacia 96 % of control

CCCCCCCCCCCCC(=O)[O][Hg][c]1ccccc1
inactive: dose: 9.38 mg/kg/injection, schedule: Q01DX001 (ip), vehicle: steriod suspending solution 96 % of control | dose: 18.75 mg/kg/injection, schedule: Q01DX001 (ip), vehicle: steriod suspending solution 98 % of control

COc1cc(C(=O)OCCN(C(C)C)C(C)C)cc(OC)c1OC
inactive: [14] 101 % of control | [15] 95 % of control

NS(=O)(=O)c1cc2c(cc1Cl)NC(CSCC(F)(F)F)NS2(=O)=O (stereo unspecified)
inactive: [8] 113 % of control | [9] 108 % of control | [10] 97 % of control

COC(=O)C(CCC1CCCCN1)(c1ccccc1)c1ccccc1 (stereo unspecified)
inactive: dose: 35.0 mg/kg/injection, schedule: Q01DX009 (ip), vehicle: saline 112 % of control and 119 % of control | dose: 50.0 mg/kg/injection, schedule: Q01DX009 (ip), vehicle: saline 120 % of control | dose: 110.0 mg/kg/injection, schedule: Q01DX009 (ip), vehicle: saline 96 % of control

ClCCC1OCCCO1
inactive: dose: 50.0 mg/kg/injection, schedule: Q01DX009 (ip), vehicle: saline + alcohol 96 % of control | dose: 100.0 mg/kg/injection, schedule: Q01DX009 (ip), vehicle: saline + alcohol 100 % of control | dose: 200.0 mg/kg/injection, schedule: Q01DX009 (ip), vehicle: saline + alcohol 96 % of control

C=C(C)CC(O)CCCCC (stereo unspecified)
inactive: dose: 100.0 mg/kg/injection, schedule: Q04DX002 (ip), vehicle: saline 98 % of control | dose: 200.0 mg/kg/injection, schedule: Q04DX002 (ip), vehicle: saline 102 % of control | dose: 400.0 mg/kg/injection, schedule: Q04DX002 (ip), vehicle: saline 98 % of control

CC(=O)Nc1ccc(S(=O)(=O)Cl)cc1
inactive: dose: 75.0 mg/kg/injection, schedule: Q01DX001 (ip), vehicle: other 94 % of control | [14] 108 % of control | dose: 150.0 mg/kg/injection, schedule: Q01DX001 (ip), vehicle: other 88 % of control | [15] 92 % of control | dose: 400.0 mg/kg/injection, schedule: Q04DX003 (ip), vehicle: saline 90 % of control

c1ccc(P(CCP(CCP(c2ccccc2)c2ccccc2)CCP(c2ccccc2)c2ccccc2)c2ccccc2)cc1
inactive: [11] 89 % of control | [16] 89 % of control | [17] 88 % of control

Nc1ccc(C(=O)NC(CCC(=O)O)C(=O)O)cc1 (stereo unspecified)
inactive: [7] 92 % of control | dose: 200.0 mg/kg/injection, schedule: Q04DX002 (ip), vehicle: saline with Tween-80 95 % of control | dose: 400.0 mg/kg/injection, schedule: Q04DX002 (ip), vehicle: saline with Tween-80 92 % of control

N#CN(Cc1ccc(Cl)cc1Cl)C(=O)OCOc1ccc(Cl)cc1
inactive: [4] 91 % of control | [5] 96 % of control | [6] 107 % of control

CC(=O)NNC(=O)C1CCCCN1 (stereo unspecified)
inactive: dose: 100.0 mg/kg/injection, schedule: Q01DX001 (ip), vehicle: water 101 % of control | dose: 200.0 mg/kg/injection, schedule: Q01DX001 (ip), vehicle: water 100 % of control | dose: 400.0 mg/kg/injection, schedule: Q01DX001 (ip), vehicle: water 103 % of control

COC1=C(NC2CCCCC2)C(=O)C(OC)=C(NC2CCCCC2)C1=O
inactive: dose: 50.0 mg/kg/injection, schedule: Q01DX001 (ip), vehicle: carboxymethylcellulose (CMC) 103 % of control | [8] 101 % of control | [11] 86 % of control | [12] 96 % of control | [9] 101 % of control | [16] 98 % of control | [13] 94 % of control | [10] 103 % of control | [17] 91 % of control | [18] 94 % of control

COC(OC)C1OC(c2ccccc2)OC2COC(c3ccccc3)OC21 (stereo unspecified)
inactive: dose: 12.5 mg/kg/injection, schedule: Q01DX009 (ip), vehicle: saline with Tween-80 92 % of control | dose: 12.5 mg/kg/injection, schedule: Q04DX003 (ip), vehicle: saline with Tween-80 93 % of control | dose: 25.0 mg/kg/injection, schedule: Q01DX009 (ip), vehicle: saline with Tween-80 92 % of control | dose: 25.0 mg/kg/injection, schedule: Q04DX003 (ip), vehicle: saline with Tween-80 92 % of control | dose: 50.0 mg/kg/injection, schedule: Q01DX009 (ip), vehicle: saline with Tween-80 92 % of control | dose: 50.0 mg/kg/injection, schedule: Q04DX003 (ip), vehicle: saline with Tween-80 92 % of control

O=C1c2ccccc2C(=O)C1(Br)Br
inactive: [19] 106 % of control | dose: 100.0 mg/kg/injection, schedule: Q01DX001 (ip), vehicle: saline 97 % of control | dose: 200.0 mg/kg/injection, schedule: Q01DX001 (ip), vehicle: saline 101 % of control

Cc1ccc2[nH]c(=O)oc(=O)c2c1
inactive: [4] 105 % of control | [5] 102 % of control

[Cl][Sn]([Cl])([c]1ccccc1)[c]1ccccc1
inactive: dose: 12.5 mg/kg/injection, schedule: Q01DX001 (ip), vehicle: saline 108 % of control | dose: 25.0 mg/kg/injection, schedule: Q01DX001 (ip), vehicle: saline 96 % of control | [19] 100 % of control

CCCCOC(=O)NC/C(Br)=C/Br
inactive: [11] 96 % of control | [12] 100 % of control | [16] 94 % of control | [13] 96 % of control | [17] 91 % of control | [18] 105 % of control
